This assay has as its system HCC1937. Briefly: LDH (lactate dehydrogenase) releasing assay. It is filed as cell-based, Human. The following applies: LDH release and immunoblotting. The procedure:
Figure 5 The cytotoxic activity of analogs depends on particle formation like AG-08. […] The level of released LDH was calculated as fold change relative to vehicle. […] After 24 h, cell viability was measured. […] Cell viability after 24 h was measured. The reported values correspond to mean values ± standard deviation (± s.d) of three experiments. ***p < 0.001, ****p < 0.0001.
LDH-Cytotoxicity Colorimetric Assay Kit II (Biovision) was used to detect LDH releasing. Briefly, HCC1937 were seeded on 96 well plate. After treatment with compounds, cells were centrifuged at 600×g for 10 min. 10 µl supernatant were transferred into clean 96 well plate and added into 100 µl LDH Reaction Mix. Following 30 min incubation at room temperature, 10 µl stop solution were added, and absorbance was measured at 450 nm (Varioscan, Thermo Fisher Scientific, US).
(In general: LDH leaks from cells whose membrane has failed.)

For the compound `Cc1ccc(S(=O)(=O)OC2CCC3(C)C4=CCC5(C)C(C6(C)CCC(C(C)(C)O)O6)C(O)CC5(C)C4C=CC3C2(C)C)cc1` (stereo not shown) [AG-08], the “mode of cell death” value is “induced necrotic cell death”.

These data come from publication PMC9381536, “Non-apoptotic cell death induction via sapogenin based supramolecular particles” (Scientific Reports, 2022).
